The text below walks through data of PMC3969379, “Neospora caninum Calcium-Dependent Protein Kinase 1 Is an Effective Drug Target for Neosporosis Therapy” (PLoS ONE, 2014).

Read-outs that look alike come from different tables or passages of the source.

In data set [1] the test system is N. caninum tachyzoites. As to the kind of experiment: N. caninum-β-gal tachyzoite proliferation in HFF, 3 days. Particulars: Neospora caninum, read-out: EC50 N. caninum. It counts as cell-based. The procedure:
Transgenic N. caninum tachyzoites expressing beta-galactosidase under a constitutive promoter (N. caninum-β-gal) were grown in Vero cells and were separated from host cell components as previously described. Human foreskin fibroblasts (HFF) at 5×10^3 cells per well in phenol-red free culture medium were incubated at 37°C with 5% CO2 and were grown to confluence in a 96-well plate. […] Cultures were infected with N. caninum-β-gal tachyzoites (1×10^3 per well). After three days at 37°C/5% CO2, plates were centrifuged at 500 g, medium was removed, and cell cultures were lysed in PBS containing 0.05% Triton-X-100. After addition of 10 μL of 5 mM chlorophenol red-b-D-galactopyranoside (CPRG; Roche Diagnostics, Rotkreuz, Switzerland) dissolved in PBS, the absorption shift was measured at 570 nm wavelength at various time points on a VersaMax multiplate reader (Bucher Biotec, Basel, Switzerland). The activity, measured as the release of chlorophenol red over time, was proportional to the number of life parasites down to 50 per well as determined in pilot assays. EC50 values were calculated after the logit-log-transformation of relative growth and subsequent regression analysis by the corresponding software tool contained in the Excel software package (Microsoft, Seattle, WA).

In data set [2] the test system is T. gondii. Particulars: cited from earlier work.
In data set [3] the target is recombinant NcCDPK1 (Neospora caninum, UniProt F0V9W9). Put plainly: biochemical. The procedure: Protein kinase activity of recombinant NcCDPK1 and inhibition of its kinase phosphorylation properties by BKIs was measured in a non-radioactive assay using Kinase-Glo luciferase reagent (Promega, Madison, WI). This luminescence based assay measures kinase activity in the presence or absence of inhibitors by reporting changes in initial ATP concentration after NcCDPK1 phosphorylation of biotinylated Syntide-2 peptide substrate (Biotin-C6-[…]) (BioSyntide-2) (American Peptide Company, Inc. Sunnyvale, CA), [40]. […] The reaction was initiated by the addition of 10 μM ATP and incubated for 90 minutes at 30°C. Changes in initial ATP concentration was evaluated as a luminescence readout using a MicroBeta2 multi-label plate reader (Perkin Elmer, Waltham, MA).

The test system of data set [4] is N. caninum. As to the kind of experiment: N. caninum infected Balb/c mice, cerebral parasite load by real time PCR. The data set is classed as in vivo.
For data set [5] the following is noted: cited from earlier work.
In data set [6] the test system is malaria transmission. Also on record: method as in PMID 24123773. As to conditions: cited from earlier work.
For data set [7], the system named is N. caninum tachyzoites in HFF. Put plainly: Host cell invasion assay, BKI treatment pre- and post-infection (β-galactosidase). The data set is classed as cell-based, Neospora caninum. How it is done:
Control wells with equal volume of DMSO were also included per reaction plate. Two hours after initiating the experiment, the cells were washed. Selected untreated assay plates were treated with 1294 for 60 minutes after the initial wash with medium. All the assay plates were incubated for one hour before a final wash and reading the beta-galactosidase activity.

Data set [8] relates to Cryptosporidium parvum. Also on record: method as in PMID 23878324. Particulars: in vitro and in vivo; cited from earlier work.
Setting [9] is: 72 h, concentration that inhibits cell growth by 50%, tachyzoites in HFF, 3 days.
[10] abbreviates: concentration that inhibits protein kinase activity by 50%, 10 μM ATP, 40 μM BioSyntide-2, 3.3 nM enzyme, read-out: IC50 NcCDPK1.

Sequence of recombinant NcCDPK1 (F0V9W9 entry or part of it): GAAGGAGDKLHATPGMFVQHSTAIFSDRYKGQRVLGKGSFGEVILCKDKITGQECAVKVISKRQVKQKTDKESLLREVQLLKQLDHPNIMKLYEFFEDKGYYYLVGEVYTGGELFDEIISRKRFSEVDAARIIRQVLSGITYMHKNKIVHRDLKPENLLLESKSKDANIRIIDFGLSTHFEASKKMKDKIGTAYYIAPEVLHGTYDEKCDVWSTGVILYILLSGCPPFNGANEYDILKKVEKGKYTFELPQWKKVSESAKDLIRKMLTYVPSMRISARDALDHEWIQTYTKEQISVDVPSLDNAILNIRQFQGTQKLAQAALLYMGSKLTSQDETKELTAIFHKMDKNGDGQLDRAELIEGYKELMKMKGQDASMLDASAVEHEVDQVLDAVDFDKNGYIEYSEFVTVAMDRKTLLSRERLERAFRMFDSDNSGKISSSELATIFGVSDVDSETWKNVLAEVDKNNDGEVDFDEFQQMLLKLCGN

With `CC(C)(C)n1nc(-c2ccc3ccccc3c2)c2c(N)ncnc21` [11b], the EC50 (usually the concentration that produces a half-maximal response) was 0.14 µM in data set [1] (setting [9]) and 0.347 µM in data set [2]. Also, the IC50 (in general, the concentration needed to halve the response being measured) in data set [3] (setting [10]) amounted to 0.0017 µM.
Take `CCOc1ccc2cc(-c3nn(C4CCN(C)CC4)c4ncnc(N)c34)ccc2c1` [15h]: the 50% effective concentration (EC50) in data set [1] (setting [9]) is 0.055 µM; in data set [2], 0.05 µM. For the same molecule, in data set [3] (setting [10]), the IC50 was 0.0014 µM.
On to `CCOc1ccc2cc(-c3nn(C4CCN(CC)CC4)c4ncnc(N)c34)ccc2c1` [15i], for which the EC50 was 0.099 µM in data set [1] (setting [9]) and 0.09 µM in data set [2]. In addition, in data set [3] (setting [10]), the IC50 is 0.0023 µM.
`CCOc1ccc2cc(-c3nn(CC4CCNCC4)c4ncnc(N)c34)ccc2c1` [15n]: the EC50 in data set [1] (setting [9]) was 0.05 µM; in data set [2], 0.052 µM.
In the case of `CCOc1ccc2cc(-c3nn(CC4CCNCC4)c4ncnc(N)c34)ccc2n1` [16n], the EC50 in data set [1] (setting [9]) came to 0.049 µM. Also, the IC50 in data set [3] (setting [10]) was 0.0017 µM.
Turning to `CCOc1ccc2cc(-c3nn(CC4CCN(C)CC4)c4ncnc(N)c34)ccc2c1` [compound 1294], the “cerebral parasite load vs placebo group” value is recorded as “tendency towards reduced parasite load” in data set [4] (group B: 50 mg/kg oral daily from day 3 post infection for 5 days, P = 0.0139) and “clearly the most effective” in data set [4] (group C: 50 mg/kg oral daily from day 3 post infection for 10 days, P = 0.0047). For the same molecule, the “reduction of cerebral parasite burden compared to untreated control” value in data set [4] (oral 50 mg/kg for 5 days, established murine neosporosis) is 10 fold. Besides, the EC50 in data set [1] (HFF-3, 72 h) was 0.032 µM; in data set [2], 0.137 µM. In data set [5], the pharmacokinetic data result is “favorable absorption with low clearance”. The “toxicity in mammalian cells and rodents” value in data set [5] (in vivo) was “low toxicity”. Further, in data set [6], the malaria transmission blocking entry is listed as “excellent malaria transmission blocking properties”. Also, the “beta-galactosidase activity (host cell invasion)” value in data set [7] (5 μM added after the infection phase of 2 hours, p>0.2) is on record as “no difference”; in data set [7] (5 μM added at 60, 90 and 115 minutes after initiation of infection) it was “no significant difference”; in data set [7] (5 μM added at initiation of HFF infection, 2 hours, vs 1266 or DMSO, p<0.001) it was “significant decrease”. Moreover, in data set [3], the IC50 turned out to be 0.0026 µM. In data set [8], the “activity against Cryptosporidium parvum cell growth” value is “profound in vitro and in vivo activity”.
`CCOc1ccc2cc(-c3nn(CC4CCOCC4)c4ncnc(N)c34)ccc2n1` [compound 1412]: the EC50 in data set [1] (setting [9]) worked out at 0.119 µM. For the same molecule, the IC50 in data set [3] (setting [10]) was found to be 0.002 µM.
